Measured values: article PMC4936777 (ACS chemical neuroscience, 2015)
In brackets after ≈: the same amount, converted by molar mass. Values belong to the molecule of their own block, whether it stands above or below them.

What was measured:
α1β2γ2L GABAA receptor = α1β2γ2L GABAA receptor (Homo sapiens, UniProt P14867+P18507+P47870); assay: Two electrode voltage clamp of GABAA receptors expressed in X. laevis oocytes; type: cell-based; conditions: for modulation of GABA EC10 current: coexposure with GABA EC10, −80 mV; for direct activation of the receptor in the absence of GABA: fropofol at 5 and 50 μM
[1] = target: T1, horse spleen apoferritin (HSAF) (Equus caballus, UniProt P02791); assay: Isothermal titration calorimetry with HSAF; type: binding
T1 sequence (P02791 2-175 limits assumed): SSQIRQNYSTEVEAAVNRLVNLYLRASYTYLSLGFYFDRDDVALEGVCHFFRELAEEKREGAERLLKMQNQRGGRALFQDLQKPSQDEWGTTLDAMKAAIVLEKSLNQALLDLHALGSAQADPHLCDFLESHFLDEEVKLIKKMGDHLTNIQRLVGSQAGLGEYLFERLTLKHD

[2] = target: T1, horse spleen apoferritin (HSAF); assay: 1-aminoanthracene; type: binding
[3] = target: T1, horse spleen apoferritin (HSAF); assay: [3H]AziPm photolabel competition with HSAF; type: binding; conditions: One μM ligand
physchem = type: physicochemical; conditions: water, thermodynamic from solid
[4] = system: albino Xenopus laevis tadpoles; type: in vivo
C57/Bl6 mice = assay: Pharmacological activity and EEG in mice after IV bolus; type: in vivo, mouse
in vivo = conditions: C57/B6, mouse, iv
[5] = system: isolated, intact rat trabecular muscle; assay: Force development of isolated intact trabecular muscle; conditions: 100 μM
[6] = target: T2, human serum albumin (hSA) (Homo sapiens, UniProt P02768); conditions: single site binding model
[7] = target: human serum albumin (hSA) domain III (Homo sapiens, UniProt P02768); assay: in vitro
[8] = target: T2, human serum albumin (hSA); assay: biochemical

- Hill coefficient (α1β2γ2L GABAA receptor; GABA concentration–response, mean ± SEM): 0.87 ± 0.04
SMILES: NCCCC(=O)O [GABA, γ-Aminobutyric acid, reference compound]

SMILES: CC(C)c1cccc(C(C)C)c1F [fropofol, 2-fluoro-1,3-diisopropylbenzene]
- Kd [1]: 1.7 µM
- fold increase in affinity for HSAF relative to propofol (ITC) ([1]; relative to propofol): 4- to 5 fold
- Kd [2]: 0.7 µM
- reduction in [3H]AziPm binding to HSAF [3]: 61%
- solubility at 24 h (physchem): 116 ± 4.4 µM (≈ 20.9 µg/mL)
- loss-of-mobility endpoints in tadpoles ([4]; 3–100 μM, 60 and 90 min exposure): none of the X. laevis tadpoles within any dose group exhibited the standard loss-of-mobility endpoints
- time to resume normal swimming behaviors after exchange for fresh pond water ([4]; albino, Xenopus laevis, in vivo): 10 to 15 min
- observable effects in mice (C57/Bl6 mice; 96 mg/kg, bolus tail vein injection, 10% lipid emulsion): no observable effects
- toxicity in mice in the following days postinjection (C57/Bl6 mice; 180 mg/kg IV): no toxicity was observed
- time to resume normal activity in mice (C57/Bl6 mice; C57/B6, mouse, in vivo): 2 to 3 h
- EEG recording in mice (C57/Bl6 mice; mouse, in vivo): Phenotypical seizure activity
- EEG recordings and physical observation in mice (C57/Bl6 mice; mouse, in vivo): generalized tonic-clonic seizure-like activity
- loss of righting reflex in mice (C57/Bl6 mice; up to the highest dose): not with even the highest dose
- concentration at 45 s (in vivo; 96 mg/kg): 38000 ng/g
- concentration at 10 min (in vivo; 200 mg/kg): 51000 ng/g
- effect on propofol positive modulation of the GABAA receptor (α1β2γ2L GABAA receptor; 50 μM fropofol, with GABA EC10 and propofol): no significant change
- modulation of GABA EC10 current (α1β2γ2L GABAA receptor): no significant modulation or inhibition
- direct activation of the receptor in the absence of GABA (α1β2γ2L GABAA receptor): no significant direct activation
- effect on 5 μM propofol potentiation of GABAA receptor currents (α1β2γ2L GABAA receptor; saturating concentrations of fropofol, with GABA EC10): no significant alteration
- depression (reduction) of maximum force development ([5]; LBN/F1, rat): 35 ± 1%
- stoichiometry n for hSA (ITC) [6]: 1.3 ± 0.9
- inhibition at 75 µM [7]: 37 ± 12%
- Kd [8]: 91 µM

SMILES: CC(C)c1cccc(C(C)C)c1O [propofol, 2,6-diisopropylphenol, reference compound]
- Kd [2]: 10 µM
- reduction in [3H]AziPm binding to HSAF [3]: 31%
- loss of righting reflex in mice (C57/Bl6 mice; 20 mg/kg): produced
- modulation of GABA EC10 current (α1β2γ2L GABAA receptor): concentration-dependent increase in current up to 80 μM
- direct activation of the receptor in the absence of GABA (α1β2γ2L GABAA receptor): minor direct activation
- depression (reduction) of maximum force development ([5]; room temperature): 49 ± 4%
